Ki data for 20 compounds are collected here from ChEMBL document CHEMBL5346968, “Exploring Structural Determinants of Bias among D4 Subtype-Selective Dopamine Receptor Agonists” (J Med Chem, 2023).

Molecules are shown by their SMILES. pKi: −log10 of the molar value.

Assay [1] deals with D(3) dopamine receptor (Homo sapiens, UniProt P35462). In words: Displacement of [3H]-N-methylspiperone from human dopmaine D3 receptor expressed in HEK293T cells assessed as inhibition constant by competition binding assay. Format: cell-based. On the technique in general: In a radioligand displacement assay an active substance lowers the binding of a labelled ligand.
The target of assay [2] is T1, D(2) dopamine receptor (Homo sapiens, UniProt P14416). Kind of assay: Displacement of [3H]-N-methylspiperone from human dopmaine D2S receptor expressed in CHO cell membrane assessed as inhibition constant by competition binding assay. The class given is cell membranes.
Assay [3] addresses T1, D(2) dopamine receptor. In words: Displacement of [3H]-N-methylspiperone from human dopmaine D2L receptor expressed in CHO cell membrane assessed as inhibition constant by competition binding assay. Format: cell membranes.
Assay [4] addresses T2, D(4) dopamine receptor (Homo sapiens, UniProt P21917).
T2 sequence (P21917 whole entry): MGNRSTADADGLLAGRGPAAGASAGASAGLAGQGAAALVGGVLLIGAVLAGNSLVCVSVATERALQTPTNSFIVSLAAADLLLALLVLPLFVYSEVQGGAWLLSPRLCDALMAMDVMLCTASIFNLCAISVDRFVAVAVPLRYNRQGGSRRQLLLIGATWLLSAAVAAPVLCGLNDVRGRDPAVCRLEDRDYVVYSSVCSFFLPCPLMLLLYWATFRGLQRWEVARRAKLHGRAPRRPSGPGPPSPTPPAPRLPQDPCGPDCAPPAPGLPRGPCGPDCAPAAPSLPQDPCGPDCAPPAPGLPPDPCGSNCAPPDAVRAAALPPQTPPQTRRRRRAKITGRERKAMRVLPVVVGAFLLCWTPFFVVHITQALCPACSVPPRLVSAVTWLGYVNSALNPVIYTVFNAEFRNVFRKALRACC
Kind of assay: Displacement of [3H]-N-methylspiperone from human dopmaine D4.4 receptor expressed in HEK293T cells assessed as inhibition constant by competition binding assay. The class given is cell-based.

T1 sequence (P14416 whole entry): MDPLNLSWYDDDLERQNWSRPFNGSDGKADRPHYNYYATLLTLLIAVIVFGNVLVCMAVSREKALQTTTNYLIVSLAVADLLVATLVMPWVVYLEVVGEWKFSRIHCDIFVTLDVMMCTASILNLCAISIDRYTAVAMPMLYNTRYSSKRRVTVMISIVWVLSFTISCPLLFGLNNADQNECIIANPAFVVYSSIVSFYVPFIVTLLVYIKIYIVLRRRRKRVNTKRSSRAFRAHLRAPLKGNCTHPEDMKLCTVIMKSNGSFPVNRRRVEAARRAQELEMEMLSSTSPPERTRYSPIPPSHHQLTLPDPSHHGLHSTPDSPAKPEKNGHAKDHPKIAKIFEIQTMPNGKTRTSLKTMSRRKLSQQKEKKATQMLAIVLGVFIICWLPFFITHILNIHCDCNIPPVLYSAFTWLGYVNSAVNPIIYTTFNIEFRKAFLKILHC
D(3) dopamine receptor, sequence (P35462 whole entry): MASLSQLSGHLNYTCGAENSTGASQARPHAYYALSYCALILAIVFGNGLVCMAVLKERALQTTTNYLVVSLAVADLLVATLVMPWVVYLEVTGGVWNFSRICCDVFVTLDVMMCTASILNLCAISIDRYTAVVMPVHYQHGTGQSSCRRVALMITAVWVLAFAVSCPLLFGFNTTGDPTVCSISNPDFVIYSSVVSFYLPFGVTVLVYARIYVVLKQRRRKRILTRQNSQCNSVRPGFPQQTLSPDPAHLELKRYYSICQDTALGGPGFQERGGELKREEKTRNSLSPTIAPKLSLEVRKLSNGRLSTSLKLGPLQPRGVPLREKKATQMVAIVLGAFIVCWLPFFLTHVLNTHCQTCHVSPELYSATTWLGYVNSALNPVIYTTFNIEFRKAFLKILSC

A word on the pKi: it is the negative decadic logarithm of the Ki, by convention in mol/L. Consider `COc1ccccc1N1CCN(CCCNC(=O)Nc2ccc(F)cc2-c2ccccc2)CC1`, for which the figures for the pKi in assay [1], in assay [2] and in assay [3] were 7.54, 7.51 and 6.85, respectively.
`COc1ccccc1N1CCN(CCCNC(=O)NCc2ccccc2-c2ccc(F)cc2)CC1`: the pKi in assay [4] was 8.28; in assay [1], 7.00; in assay [2], 7.12; in assay [3], 6.68.
Taken in the same sequence, the figures for `COc1ccccc1N1CCN(CCCNC(=O)NCc2ccccc2-c2ccc(C(C)C)cc2)CC1` were 7.44, 6.72, 6.77 and 6.40.
Turning to `C#CCOc1ccc(NC(=O)NCCCN2CCN(c3ccccc3OC)CC2)c(-c2ccccc2)c1`, the negative logarithm of the Ki (pKi) was 8.46 in assay [4], 7.41 in assay [1], 7.34 in assay [2] and 7.07 in assay [3].
On to `COc1ccccc1N1CCN(CCCNC(=O)NCc2ccccc2-c2cccc(F)c2)CC1`, for which the pKi is 8.51 in assay [4], 6.68 in assay [1], 7.17 in assay [2] and 7.07 in assay [3].
Taken in the same sequence, the figures for `COc1ccccc1N1CCN(CCCNC(=O)NCc2ccccc2-c2ccc(-c3ccccc3)cc2)CC1` were 7.82, 6.43, 6.54 and 6.34.
The corresponding values for `COc1ccc(NC(=O)NCCCN2CCN(c3ccccc3OC)CC2)cc1-c1ccc(F)cc1` are 8.24, 7.18, 7.28 and 7.05.
As for `COc1ccccc1N1CCN(CCCNC(=O)Nc2ccccc2-c2ccc(C(C)C)cc2)CC1`, the figures for the pKi in assay [1], in assay [2] and in assay [3] were 7.47, 7.05 and 6.82, respectively.
For the compound `COc1cccc(-c2ccccc2NC(=O)NCCCN2CCN(c3ccccc3OC)CC2)c1`, the pKi was 8.00 in assay [4], 7.62 in assay [1], 6.96 in assay [2] and 6.92 in assay [3].
Regarding `COc1ccccc1N1CCN(CCCNC(=O)NCc2cccc(F)c2-c2ccccc2)CC1`, the results for the pKi in assay [4] and in assay [1] were 8.96 and 7.21, respectively.
In the case of `COc1ccccc1N1CCN(CCCNC(=O)Nc2ccc(-c3ccccc3)cc2)CC1`, the negative-log Ki (pKi) in assay [4] is 6.96; in assay [1] it was 7.66; in assay [2], 6.89; in assay [3] it was 6.47.
The corresponding values for `COc1cccc(-c2ccccc2CNC(=O)NCCCN2CCN(c3ccccc3OC)CC2)c1` are 7.89, 7.12, 7.06 and 6.66.
For the compound `COc1ccccc1N1CCN(CCCNC(=O)Nc2ccccc2-c2ccc(C(C)(C)C)cc2)CC1`, the negative logarithm of the Ki (pKi) is 7.52 in assay [4], 7.15 in assay [1], 7.11 in assay [2] and 6.92 in assay [3].
As to `COc1ccccc1N1CCN(CCCNC(=O)NCc2c(F)cccc2-c2ccccc2)CC1`, the results for the pKi in assay [1], in assay [2] and in assay [3] were 7.14, 6.85 and 6.68, respectively.
On to `COc1ccccc1N1CCN(CCCNC(=O)NCc2ccccc2-c2ccc(C)cc2)CC1`, for which the pKi in assay [4] was 8.38; in assay [1], 7.05; in assay [2], 7.21; in assay [3], 6.96.
The corresponding values for `COc1ccccc1N1CCN(CCCNC(=O)Nc2cccc(-c3ccccc3)c2)CC1` are 8.14, 7.59, 7.74 and 7.34.
The corresponding values for `COc1ccccc1N1CCN(CCCNC(=O)NCc2cc(F)ccc2-c2ccccc2)CC1` are 8.34, 6.82, 7.42 and 7.06.
With `COc1ccccc1N1CCN(CCCNC(=O)Nc2ccccc2-c2cccc(F)c2)CC1`, the pKi is 8.40 in assay [4], 7.64 in assay [1], 6.96 in assay [2] and 6.77 in assay [3].
Taken in the same sequence, the figures for `COc1ccccc1N1CCN(CCCNC(=O)NCc2ccc(F)cc2-c2ccccc2)CC1` were 8.57, 7.00, 7.40 and 7.14.
With `COc1ccc(CNC(=O)NCCCN2CCN(c3ccccc3OC)CC2)c(-c2ccccc2)c1`, the negative-log Ki (pKi) is 8.51 in assay [4], 7.04 in assay [1], 7.43 in assay [2] and 6.80 in assay [3].
